Measured values from ChEMBL document CHEMBL1151728 (J Med Chem, 2008).
Activity calls are given as the source filed them. The rule behind the calls is not given here.

Experiments:
[1] = test system: Rattus norvegicus; experiment: Effect on scopolamine-induced memory impairment in iv dosed Wistar rat assessed as decrease in time spent for exploration of the bait at the end of the eight-arm radial maze for 5 days; type: functional, organism-based
[2] = molecular target: Butyrylcholinesterase (Equus caballus, UniProt Q9N1N9)
Description: Inhibition of BuChE from equine serum

[3] = molecular target: Acetylcholinesterase (Electrophorus electricus, UniProt O42275)
Description: Inhibition of Electric eel AChE

[4] = test system: Rattus norvegicus; experiment: Effect on scopolamine-induced memory impairment in iv dosed Wistar assessed as decrease in number of errors during exploration of the bait at the end of the eight-arm radial maze for 5 days; type: functional, organism-based
[5] = species: Rattus norvegicus; experiment: Hepatotoxicity in Wistar rat liver assessed as histopathological changes; type: toxicity, organism-based; settings: in vivo

Chain of Acetylcholinesterase (O42275 whole entry): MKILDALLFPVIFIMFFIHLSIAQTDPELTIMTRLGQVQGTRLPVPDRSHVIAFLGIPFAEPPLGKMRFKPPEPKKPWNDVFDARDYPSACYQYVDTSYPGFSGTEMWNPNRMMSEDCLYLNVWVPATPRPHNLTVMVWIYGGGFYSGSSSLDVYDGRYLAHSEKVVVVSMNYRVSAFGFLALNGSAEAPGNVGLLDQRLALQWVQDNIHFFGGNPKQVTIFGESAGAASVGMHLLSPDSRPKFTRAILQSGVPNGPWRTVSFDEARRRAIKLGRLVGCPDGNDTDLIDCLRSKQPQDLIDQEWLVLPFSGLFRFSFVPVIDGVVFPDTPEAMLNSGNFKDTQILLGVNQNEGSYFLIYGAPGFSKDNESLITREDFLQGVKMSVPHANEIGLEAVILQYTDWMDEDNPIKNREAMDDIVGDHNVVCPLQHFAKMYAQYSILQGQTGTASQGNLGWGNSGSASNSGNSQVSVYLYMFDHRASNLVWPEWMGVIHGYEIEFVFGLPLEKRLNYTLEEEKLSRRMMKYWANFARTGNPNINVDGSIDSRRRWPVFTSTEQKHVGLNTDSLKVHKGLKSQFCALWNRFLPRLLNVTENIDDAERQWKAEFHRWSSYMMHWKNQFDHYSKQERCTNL
Chain of Butyrylcholinesterase (Q9N1N9 whole entry): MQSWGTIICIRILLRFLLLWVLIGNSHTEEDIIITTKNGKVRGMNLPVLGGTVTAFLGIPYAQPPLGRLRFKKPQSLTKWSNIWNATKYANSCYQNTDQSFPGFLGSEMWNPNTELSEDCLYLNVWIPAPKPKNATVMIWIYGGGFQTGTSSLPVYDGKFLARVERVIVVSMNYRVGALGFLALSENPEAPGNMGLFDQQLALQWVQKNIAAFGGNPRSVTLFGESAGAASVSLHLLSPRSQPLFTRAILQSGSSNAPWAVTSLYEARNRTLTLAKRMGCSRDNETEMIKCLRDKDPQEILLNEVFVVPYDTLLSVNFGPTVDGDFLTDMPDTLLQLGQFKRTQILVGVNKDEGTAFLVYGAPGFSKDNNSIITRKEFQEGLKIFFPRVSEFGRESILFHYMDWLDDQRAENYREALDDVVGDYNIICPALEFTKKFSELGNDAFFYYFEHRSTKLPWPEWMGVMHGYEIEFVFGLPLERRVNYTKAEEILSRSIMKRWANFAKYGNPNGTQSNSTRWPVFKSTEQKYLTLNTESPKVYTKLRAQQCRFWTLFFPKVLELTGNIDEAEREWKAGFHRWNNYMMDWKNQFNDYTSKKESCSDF

Compound	Activity [1]	IC50 [2]	IC50 [3]	Activity [4]	Activity [5]
O=[N+]([O-])OCCNCCNc1c2c(nc3ccccc13)CCCC2	Active	7.3 nM	9.1 nM	Active	–
O=[N+]([O-])OCCCNCCCCCNc1c2c(nc3ccccc13)CCCC2	–	14.3 nM	15.4 nM	–	–
O=C(CO[N+](=O)[O-])NCCCNc1c2c(nc3ccccc13)CCCC2	Active	13.5 nM	28.2 nM	Active	–
O=[N+]([O-])OCCCCCCNCCCCCCCCNc1c2c(nc3ccccc13)CCCC2	–	12.9 nM	19.6 nM	–	–
O=[N+]([O-])OCCNCCCCCNc1c2c(nc3ccccc13)CCCC2	–	13.3 nM	21.6 nM	–	–
O=[N+]([O-])OCCCNCCNc1c2c(nc3ccccc13)CCCC2	–	18.1 nM	13 nM	–	–
O=[N+]([O-])OCCNCCCCCCCCNc1c2c(nc3ccccc13)CCCC2	–	17 nM	7.7 nM	–	–
O=[N+]([O-])OCCCNCCCCNc1c2c(nc3ccccc13)CCCC2	Active	9.9 nM	5.6 nM	Active	Non-toxic
CCCNCCCCNc1c2c(nc3ccccc13)CCCC2	inactive	7.2 nM	23.4 nM	inactive	–
O=[N+]([O-])OCCCNCCCCCCCCNc1c2c(nc3ccccc13)CCCC2	–	14.8 nM	17.1 nM	–	–
